From publication PMC8778091, “In Silico-Based Discovery of Natural Anthraquinones with Potential against Multidrug-Resistant E. coli” (Pharmaceuticals, 2022)
Converted amounts (≈) assume the structure as drawn. Read-outs that look alike come from different tables or passages of the source.

Experiments:
[1] = tested on: E. coli (MDR) a clinical isolate; assay: MIC, agar dilution method, E. coli MDR a; format: cell-based; details: Escherichia coli; range 1-64 µg/mL, 37 °C, 18-20 h; read-out: MIC E. coli (MDR) a
Experimental: (§1) The selected top-scoring hits were evaluated for their antibacterial effect against two clinical multidrug-resistant strains of enterotoxigenic E. coli. Both isolates were isolated as clinical samples from Beni Suef general hospital, Beni Suef, Egypt. […] MRSA (ATCC 25529) and VRSA (clinical isolate from Beni Suef general hospital, Beni Suef, Egypt) were also used to further evaluate the tested compounds against resistant Gram-positive bacteria.
(§2) Minimum inhibitory concentrations for the test compounds were analyzed following the standard agar dilution method using Meuller-Hinton (MH) agar medium against different Gram-negative and positive bacteria (Table 1). Firstly, the tested compounds were prepared as a stock suspension with a 10 mg/mL final concentration in DMSO. Subsequently, the prepared stocks were diluted in 10 mL molten soft agar (0.5% agar) to obtain a concentration range from 1–64 µg/mL, then mixed and poured over a surface of MH agar (2% agar) plates and left for solidification. Finally, exponentially grown (O.D 600 nm of 0.6) test strains (Table 1) were diluted to a final density of 10^6 CFU/mL in MH broth and spotted (1 µL/spot) over the soft agar. Then, the plates were left for drying and incubated at 37 °C for 18–20 h. Controls were conducted using DMSO seeded soft agar. At the end of the experiment, the MIC for each compound was identified as the minimum concentration that inhibited the growth of the tested strain. The experiments were carried out in triplicates.

[2] = tested on: tested bacterial strains (E. coli MDR, MRSA, VRSA); assay: Antibacterial evaluation, tested bacterial strains taken together; format: cell-based; details: Escherichia coli; E. coli MDR, MRSA, VRSA
Experimental: as §1, §2

[3] = Cellular toxicity against normal fibroblasts WI-38 (MTT); format: cell-based; details: human
Experimental: All selected top-scoring compounds were tested for their cellular toxicity against human fibroblasts cell line (WI-38). Cell line (WI-38; ATCC: CCL-75) was maintained in earth RPMI 1640 medium comprising 10% heat-inactivated fetal bovine serum (FBS) and grown at 37 °C and 5% CO2. The cell line was seeded on 96-well cell culture plates (2 × 10^4 cells/well). Cells were stimulated with tested compounds at different concentrations (from 1 to 50 µM) overnight in triplicates. Doxorubicin was used as a positive control. Cell viability was assessed by MTT assay. To normalize cell viability values, each plate included a triplicate of untreated cells considered as 100% viability, and a triplicate of cells treated with a cytotoxic mixture (200 ng/mL TNF, 200 ng/mL CD95L, 200 ng/mL TRAIL, 5 μg/mL CHX, 1% (w/v) sodium azide […]) considered as 0% viability. All other viability values were normalized according to the averages of these triplicates and analyzed by the Graph Pad Prism 5 software (La Jolla, CA, USA).

MRSA (ATCC 25529) = assay: MIC, agar dilution method, MRSA; format: cell-based, S. aureus; details: Staphylococcus aureus; range 1-64 µg/mL, 37 °C, 18-20 h; read-out: MIC MRSA
Experimental: as §1, §2

VRSA (clinical isolate) = assay: MIC, agar dilution method, VRSA; format: cell-based, S. aureus; details: Staphylococcus aureus, VRSA; range 1-64 µg/mL, 37 °C, 18-20 h; read-out: MIC VRSA
Experimental: as §1, §2

[4] = molecular target: T1, E. coli gyrase B43 domain (Gyr-B) (Escherichia coli, UniProt P0AES6); assay: biochemical; format: biochemical
T1 construct: 20 μL of the enzyme (E. coli gyrase B43 domain; 20 μM concentration); purchased Inspiralis ATPG001
Experimental: (§3) Ddl-B and Gyr-B activity assays were performed according to the manufacturer protocols (ProFoldin, Catalogue No. DDA100KE, and Inspiralis, Catalogue No. ATPG001, UK).
Gyr-B assay measured the capability of the tested compounds to hinder the ATPase activity of Gyr-B subunits. This assay links the hydrolysis of ATP by gyrase to the conversion of NADH to NAD^+, which can be measured by a change in absorbance at 340 nm. The assay reactions and detection were performed using a 96-well plate. […] First, the assay mix was prepared by mixing 20 μL of the assay buffer (50 mM Tris.HCl (pH 7.5), 1 mM EDTA, 5 mM magnesium chloride, 5 mM DTT, 10% (w/v) glycerol), 1 μL phosphoenolpyruvate (80 mM in water), 1.5 μL pyruvate kinase/lactate dehydrogenase stock, 2 μL NADH (20 mM in water), and 58.8 μL water. Thereafter, 63.3 μL of assay mix and 10 μL of the test compound solution and 20 μL of the enzyme (E. coli gyrase B43 domain; 20 μM concentration) were added into the wells and mixed by pipetting. After incubation for 10 min at 25 °C, 6.7 uL of ATP (30 mM) was added to each well. After 60 min of incubation at 25 °C, the absorbance was measured at 340 nm.

[5] = molecular target: T2, E. coli DAla:D-Ala ligase (Ddl-B) (Escherichia coli, UniProt P07862); assay: Ddl-B enzymatic activity assay (inorganic phosphate, absorbance 650 nm); format: biochemical
T2 construct: purchased ProFoldin DDA100KE
Experimental: as §3
Ddl-B enzymatic activity assay is based on measuring the inorganic phosphate generated from the D-Alanine: D-Alanine ligation reaction. The inorganic phosphate is detected by absorbance at 650 nm. The assay reactions and detection were performed by using a 96-well plate. Different concentrations of the test compounds and the reference inhibitor D-cycloserine were prepared in DMSO (from 10 µM to 1000 µM). […] Thereafter, 33 μL of 10× enzyme substrate was prepared by mixing 3.3 μL of 100× enzyme substrate with 29.7 μL of water. Finally, 27 μL of the premix with 3 μL of the 10× enzyme substrate in each well were mixed. After 60 min of incubation at 37 °C, 45 μL of MPA3000 dye was added into the 30 μL of the reaction mixture. After 5 min of incubation, absorbance was measured at 650 nm.

[6] = tested on: E. coli (MDR) b clinical isolate; assay: MIC, agar dilution method, E. coli MDR b; format: cell-based; details: Escherichia coli; range 1-64 µg/mL, 37 °C, 18-20 h; read-out: MIC E. coli (MDR) b
Experimental: as §1, §2

| SMILES | MIC [1] | MIC [2] | CC50 [3] | MIC (MRSA (ATCC 25529)) | MIC (VRSA (clinical isolate)) | IC50 [4] | Ki [4] | Ddl-B inhibition in words [5] | IC50 [5] | Ki [5] | MIC [6] | CC50 ([3]; WI-38 normal fibroblast cells, WI-38, 1 to 50 µM overnight, MTT, read-out: CC50) | Gyr-B inhibition in words [4] | IC50 ([5]; 10-1000 µM tested, read-out: IC50 Ddl-B) | Ki ([5]; read-out: Ki Ddl-B) |
| --- | --- | --- | --- | --- | --- | --- | --- | --- | --- | --- | --- | --- | --- | --- | --- |
| CC(C)C1=CC2=CC[C@@H]3[C@](C)(CCC[C@@]3(C)C(=O)O)[C@H]2CC1 [Abietic acid] | 64 µg/mL (≈ 212 µM) | 16 to 64 µg/mL (≈ 52.9 to 212 µM) | > 50 µM | > 64 µg/mL | 16 µg/mL (≈ 52.9 µM) | 1.4 ± 0.4 µM | 0.77 ± 0.1 µM | inactive | > 1000 µM | > 1000 µM | 16 µg/mL (≈ 52.9 µM) | – | – | – | – |
| O=C1c2c(O)cccc2C([C@@H]2O[C@H](CO)[C@@H](O)[C@H](O)[C@H]2O)c2cc(CO)cc(O)c21 (some centres unmarked) [Aloin] | > 64 µg/mL | > 64 µg/mL | – | > 64 µg/mL | > 64 µg/mL | 22.4 ± 2.1 µM | 10.5 ± 1.6 µM | weak inhibition | – | – | > 64 µg/mL | 34.7 ± 0.94 µM | weak inhibition | 927 ± 7.4 µM | 529 ± 12.3 µM |
